We go through one compound from US5863901A, “Use of bradykinin antagonists for the production of pharmaceuticals for the treatment of chronic fibrogenetic liver disorders and acute liver disorders” (Hoechst Aktiengesellschaft, priority 1996, dated 1999).

For the test, the system named is rats with carbon tetrachloride-induced hepatic fibrosis. Briefly: Saluresis and diuresis test: urine and electrolyte excretion in rats with carbon tetrachloride-induced hepatic fibrosis. In kind it is in vivo, Wistar rats. Conditions: for Chloride excretion / Potassium excretion / Sodium excretion / Urine volume: 0.3 mg/kg s.c. at 0 and 6 h, mean value, n = 10, CCl4 fibrosis rats. The method, then: Wistar rats were used (breeder Hoechst AG, Kastengrund) with an initial body weight of 120-150 g.
Hepatic fibrosis was induced as described by Bickel et al., J. Hepatol., 13 (Suppl. 3) (1991) 26-33. The animals received carbon tetrachloride (CCl4) twice-weekly in a dose of 1 ml/kg orally for at least 6 weeks. The fibrosis of the liver was verified by means of the collagen content of the liver and liver-relevant serum parameters (bilirubin, ALAT, bile acids).
In the course of the fibrogenesis, the animals were kept under standard conditions as follows: day/night rhythm (light phase from 6.30 to 18.30), room temperature 22±2° C. and relative atmospheric humidity 60±10%. The animals received standardized rat feed (Altromin® 1321) and water ad libitum.
At the time of the diuresis test, the animals had reached weights of between 200 and 320 g. Food had already been withdrawn from the animals 16 h before the test and withheld during the entire test. The animals were additionally permitted free access to water up to the actual start of the test. For the duration of the diuresis test, the animals were kept in special diuresis cages. Controlled diuresis was induced with an oral dose of 20 ml of water per kg of body weight at time 0 h. The excretion of electrolytes and urine volumes were determined separately for each animal in the collection periods from […] and 6-24 h. Five days later, the test was carried out again on the same animals with administration of bradykinin antagonists. Animals received 0.3 mg/kg each of HOE 140 s.c. at time 0 and 6 h, dissolved in 5 ml of saline solution per kg of body weight.
Sodium and potassium were determined by flame photometry (Eppendorf flame photometer, Hamburg). Chloride was measured argentometrically by means of potentiometric end-point determination (Eppendorf chloride meter, Hamburg). The analytical results were used to calculate the urine excretion (ml/kg of body weight) and electrolyte excretion (mmol/kg of body weight).
The results are indicated as arithmetic means and standard deviation (SD). Statistical checking was carried out by the T test or, in the case of deviation from the normal distribution, by the nonparametric Mann-Whitney test.

Under “collection period 1-5 h”, `NC(N)=NCCC[C@@H](N)C(=O)N[C@@H](CCCN=C(N)N)C(=O)N1CCC[C@H]1C(=O)N1C[C@H](O)C[C@H]1C(=O)NCC(=O)N[C@@H](Cc1cccs1)C(=O)N[C@@H](CO)C(=O)N1Cc2ccccc2C[C@@H]1C(=O)N1[C@H](C(=O)N[C@@H](CCCN=C(N)N)C(=O)O)C[C@@H]2CCCC[C@@H]21` [HOE 140, H-D-Arg-Arg-Pro-Hyp-Gly-Thi-Ser-D-Tic-Oic-Arg-OH] displayed a Chloride excretion of 0.35 mmol/kg, a Potassium excretion of 0.51 mmol/kg, a Sodium excretion of 0.48 mmol/kg and a Urine volume of 26.59 mL/kg. Further, under “collection period 6-24 h”, the Chloride excretion turned out to be 3.27 mmol/kg, the Potassium excretion is 2.10 mmol/kg, the Sodium excretion came to 4.10 mmol/kg and the Urine volume is 31.03 mL/kg. For the same compound, where the note is “rats with carbon tetrachloride-induced hepatic fibrosis, versus control run in the same animals”, the “Natriuresis / sodium excretion (result in words)” value is reported as “marked, statistically significant natriuresis”.
